From patent publication US20100222421A1, “Usage of Baicalein in the Preparation of a Pharmaceutical Composition for the Treatment of Traumatic Brain Injury” (National Defense Medical Center, priority 2009, published 2010)

Tests used:
Format in all cases: in vivo, rat
TNF-α mRNA = assay: Real-time quantitative RT-PCR, TNF-α mRNA after CCI injury; details: single-dose 30 mg kg^-1 i.p.; ipsilateral cortex, 6 h after injury; P<0.05
Protocol: A previously described CCI injury procedure was utilized (Chen et al., 2003). Male Sprague-Dawley rats, which have body weight of 250-300 g, were anaesthetized with sodium pentobarbital (i.p.; 50 mgkg^−1; Rhone Merieux, Harlow, UK) and placed in a stereotaxic frame. A 5-mm craniotomy was performed over the left parietal cortex, centered on the coronal suture and 3 mm lateral to the sagittal suture. Considerable care was taken to avoid injury to the underlying dura. Injury was made using a pneumatic piston with a rounded metal tip (2.5 mm diameter) that was angled 22.5° C. to the vertical so that the tip was perpendicular with the brain surface at the centre of the craniotomy. A velocity of 4 ms^−1 and a deformation depth 2 mm below the dura were used. […] Body temperature was monitored throughout the surgery by a rectal probe; temperature was maintained at 37.0±0.5° C. using a heated pad. […] Testing after injury was as follows: (1) real-time quantitative RT-PCR analysis for TNF-α, IL-1β and IL-6 mRNA expression at 6 h post-injury (n=7 for each group); (2) FluoroJade B (FJB) staining, TNF-α, IL-1β and IL-6 immunohistochemistry, as well as ELISA at 24 h post-injury to assess degenerative neurons and to determine cytokine expression (n=7 for each group). […] Approximately 50 mg tissue was collected from the ipsilateral (injured) hemisphere and processed for real-time quantitative RT-PCR. […]

[1] = Body weight after CCI injury; details: CCI-injured rats, 30 mg kg^-1 i.p.; P=0.8
Protocol: A previously described CCI injury procedure was utilized (Chen et al., 2003). Male Sprague-Dawley rats, which have body weight of 250-300 g, were anaesthetized with sodium pentobarbital (i.p.; 50 mgkg^−1; Rhone Merieux, Harlow, UK) and placed in a stereotaxic frame. A 5-mm craniotomy was performed over the left parietal cortex, centered on the coronal suture and 3 mm lateral to the sagittal suture. Considerable care was taken to avoid injury to the underlying dura. Injury was made using a pneumatic piston with a rounded metal tip (2.5 mm diameter) that was angled 22.5° C. to the vertical so that the tip was perpendicular with the brain surface at the centre of the craniotomy. A velocity of 4 ms^−1 and a deformation depth 2 mm below the dura were used. The bone flap was immediately replaced and sealed, and the scalp was closed with sutures. Body temperature was monitored throughout the surgery by a rectal probe; temperature was maintained at 37.0±0.5° C. using a heated pad. Rats were placed in a heated cage to maintain body temperature, while recovering from anaesthesia.
Baicalein (30 mg kg^−1) dissolved in 10% dimethyl sulphoxide (0.25-0.3 mL) or a corresponding volume of vehicle (10% dimethyl sulphoxide) was administered i.p. immediately following injury or daily for 4 days (immediately, 25, 49 and 73 h) after injury. […]

[2] = test system: rats with controlled cortical impact (CCI) injury; assay: Pilot dose-selection studies, behavioural deficits; details: 10 and 30 mg kg^-1 tested, result for 30 mg kg^-1 (unpublished observations)
Protocol: Baicalein (30 mg kg^−1) dissolved in 10% dimethyl sulphoxide (0.25-0.3 mL) or a corresponding volume of vehicle (10% dimethyl sulphoxide) was administered i.p. immediately following injury or daily for 4 days (immediately, 25, 49 and 73 h) after injury. Behaviour testing using the rotarod, tactile adhesive removal, mNSS and beam walk tests was performed at 28 hours as well as 4, 7, 14, 21 and 28 days post-injury. At 14 and 28 days, the animals were killed, perfused intravascularly and their brains were processed with cresyl violet staining to assess contusion volume (n=8 for each group).

O=c1cc(-c2ccccc2)oc2cc(O)c(O)c(O)c12 [baicalein]
TNF-α mRNA level, % of level in vehicle-treated injured rats (TNF-α mRNA): 49%
body weight, baicalein versus vehicle [1]: no significant difference
neuroprotective effects in improving behavioural deficits [2]: found to have neuroprotetcive effects
